Laboratory results reported in patent US9962113B2, “Sensor for measuring the activity of beta-pancreatic cells or of islets of langerhans, manufacture and use of such a sensor” (UNIVERSITE DE BORDEAUX 1, priority 2010, dated 2018).
Where no end group is shown, it is not given here.

Test system: β-pancreatic cells
Assay: Electrical signals (action potentials) of β-pancreatic cells in culture on the microelectrode sensor of FIG. 1
Format: cell-based
Protocol: In the example embodiment shown in FIG. 1, the sensor 2 includes a set of 60 microelectrodes distributed over 1 mm^2. The microelectrodes 21 have a disk shape 10 μm in diameter. The sensor 2 also includes β-pancreatic cells 23 in culture on the set of 60 microelectrodes 21. Laboratory tests have been conducted on the sensor 2 of FIG. 1. The first line of FIG. 2 specifies the times at which glucose is present at 20 mM, i.e. from 0 to 50 min. The second line specifies the times at which diazoxide is present at 200 μM, i.e. from around 13 to 16 min and around 27 to 35 min. […] An action potential waveform is visible at the dotted vertical line. The first line of FIG. 4 specifies the time at which the β-pancreatic cells 23 of the sensor 2 are placed in contact with the incretin hormone GLP-1, shown by a vertical arrow.

Molecule | reversibility of the diazoxide effect on electrical activation (FIG. 2, after removal of diazoxide, glucose 20 mM alone) | physiological activity (action potentials) of the β-pancreatic cells of the sensor in the presence of diazoxide (FIG. 2, diazoxide 200 μM (around 13 to 16 min and 27 to 35 min) with glucose 20 mM) | time after GLP-1 injection until electrical activation increases (FIG. 4) | electrical activation (action potentials) of the β-pancreatic cells after GLP-1 (FIG. 4, after injection of the incretin hormone GLP-1)
CC1=NS(=O)(=O)c2cc(Cl)ccc2N1 [diazoxide] | not definitive | basal physiological activity | – | –
GLP-1: incretin hormone, a physiological amplifier of the glucose response (HAEGTFTSDVSSYLEGQAAKEFIAWLVKGR; ends and bridges not checked; UniProt P01275 98-127, looked up) | – | – | twenty | increases significantly
